Values joined by “and” are separate entries in the source; they are usually repeats but may differ in a detail not shown here. Equal values may be shown once.
Tests used:
Format in all cases: physicochemical
[1] = Microscopic morphology and particle size; details: optical microscope, 40× objective lens; hydrochloride
Description: Samples of the crystal form A and the crystal form B of ethoximod were subjected to microscopic morphological researches. The morphology and particle sizes of the crystal form A and the crystal form B were observed under a 40× objective lens of an optical microscope. The crystal form A is irregular and plate-shaped with a raw material particle size of below 35 µm and a long/short diameter ratio of 1 to 2. The crystal form B aggregates and becomes spherical with a raw material particle size of below 20 µm.

[2] = Angle of repose test (flowability); details: hydrochloride
Protocol: Powder properties of active pharmaceutical ingredients affect the flowability of the active pharmaceutical ingredients. The crystal form A and the crystal form B of ethoximod was subjected to angle of repose and Hausner ratio tests to compare the flowability of the crystal form A and the crystal form B of ethoximod. […] In this experiment, angles of repose of active pharmaceutical ingredients of the two crystal forms were measured through an injection method in combination with a residual cone method, and the flowability of the active pharmaceutical ingredients of the two crystal forms was analyzed. Specific operations are as follows: powders were injected into a center of a disc with a limited diameter, the injection was stopped until materials on an oblique side of a powder accumulation layer automatically flew out along an edge of the disc, a height (H) of a cone was measured, and the angle of repose was calculated according to the diameter (D = 2r) of the disc with tanQ = H/r.

[3] = Bulk density and tap density test, Hausner ratio and compressibility; details: hydrochloride
Protocol: In this experiment, the measurement was performed by using a tap instrument according to a fixed volume method. Specific operations are as follows: the weighed powders were loaded into a 50 mL graduated cylinder, and the graduated cylinder was fixed on a support; the tap instrument was set to vibrate 55±5 times per minute for 6-8 min; a change in a volume of the powders in the measuring cup was measured. A ratio of a mass of the powders to a volume (50 mL) of the materials before the tap is the bulk density of the powders, and a ratio of the mass of the powders to a volume of the materials after the tap is the tap density of the powders. Methods for converting Hausner ratio and compressibility are as follows, and the description of Hausner ratio and flowability is shown in Table 8: Table 6 Physical properties of crystal form A and crystal form B

[4] = Adhesion test in ziplock bag; details: ziplock bag flipped at 5 rpm, 10 min in each direction; hydrochloride
Protocol: Each of the crystal form A and the crystal form B of ethoximod was taken and put into a ziplock bag with a fixed size. A seal was sealed, and the ziplock bag was flipped at a rotation speed of 5 rpm for 10 min. A direction was changed, and the ziplock bag continued to be flipped at a fixed rotation speed for 10 min. Raw materials were poured out from the bag, a mass of the remaining raw materials was weighed accurately, and an adhesion rate was calculated.

[5] = Dynamic solubility at 37 °C (HPLC; residual solid by XRPD)
Protocol: Samples of the crystal form A and the crystal form B of ethoximod were taken and prepared into saturated solutions at 37 °C in Fasted State Simulated Intestinal Fluid (FaSSIF, pH = 8.0), Fed State Simulated Intestinal Fluid (FeSSIF, pH = 5.0), Simulated Gastric Fluid (SGF, pH = 1.0), a hydrochloric acid aqueous solution (pH = 1.0), an acetic acid-sodium acetate buffer system (pH = 4.0), a phosphate buffer system (pH = 6.8) and water. After 1 h/2 h/4 h/24 h, filtration was performed to obtain solutions, and actual concentrations of the samples in the solutions were measured through high-performance liquid chromatography (HPLC) (diluting the filtrates as needed). Crystal forms of the solids before and after the experiment were characterized through XRPD to check whether phase transition had occurred. Table 4 Comparison of solubility of crystal form A and crystal form B

[6] = Compressibility: tableting evaluation; details: tableting, punch die with a diameter of 6 mm; hydrochloride
Protocol: The crystal form A and the crystal form B of ethoximod were taken for preparation tableting evaluation. In this experiment, samples were subjected to tableting under the same pressure by using a punch die with a diameter of 6 mm, radial crushing forces F, diameters D and thicknesses L of the tablets were measured after the elastic recovery of the tablets, and the tensile strength of the tablets was calculated according to the following formula: tensile strength Ts = 2F/ΠDL.

[7] = Mechanical stability: grinding, XRPD before and after; details: ground with an agate mortar for 5 min; hydrochloride
Protocol: 50 mg crystal form A of ethoximod and 50 mg crystal form B of ethoximod were weighed and ground clockwise with an agate mortar for 5 min, and the samples before and after the grinding were subjected to an XRPD test.

[8] = Equilibrium solubility in organic solvents at room temperature (HPLC; solid by XRPD); details: equilibrium for 24 h; for solubility: hydrochloride
Protocol: The crystal form A and the crystal form B of ethoximod were prepared into solutions at room temperature with ethanol, acetone and ethyl acetate. After equilibrium for 24 h, filtration was performed to obtain saturated solutions, and contents of the samples in the saturated solutions were measured through high-performance liquid chromatography (HPLC) (diluting the filtrates as needed). Crystal forms of the solids before and after the experiment were characterized through XRPD to check whether phase transition had occurred.

[9] = FaSSIF (pH = 8.0), 37 °C, 1 h, hydrochloride
[10] = FaSSIF (pH = 8.0), 37 °C, 2 h, hydrochloride
[11] = FaSSIF (pH = 8.0), 37 °C, 4 h, hydrochloride
[12] = FaSSIF (pH = 8.0), 37 °C, 24 h, hydrochloride

SMILES: CCc1nc(-c2ccc(-c3ccc(CCC(N)(CO)CO)cc3)cc2)co1.Cl [crystal form B, 2-amino-2-{2-(4'-(2-ethyloxazol-4-yl)-[1,1'-biphenyl]-4-yl)ethyl}-1,3-propylene glycol hydrochloride]
- raw material particle size [1]: below 20 µm
- Average of Angles of Repose [2]: 52.3 °
- Angle of Repose ([2]; single determination): 50.2 ° and 54.5 °
- Compressibility ([3]; (tap density - bulk density)/tap density): 62.0
- Bulk Density [3]: 0.0742 g/mL
- Tap Density [3]: 0.1953 g/mL
- Hausner Ratio ([3]; tap density/bulk density): 2.6
- Adhesion Amount Per Unit Area [4]: 0.001 g/m^2
- Weight of API Adsorbed in Bag [4]: 0.0735 g
- crystal form of the solid [5, 9]: free alkali
- solubility [5, 9]: 15 µg/mL
- crystal form of the solid [5, 10]: free alkali
- solubility [5, 10]: 10 µg/mL
- crystal form of the solid [5, 11]: free alkali
- solubility [5, 11]: 8 µg/mL
- crystal form of the solid [5, 12]: free alkali
- solubility [5, 12]: 21 µg/mL
- solubility ([5]; FeSSIF (pH = 5.0), 37 °C, 1 h, hydrochloride): 1480 µg/mL
- solubility ([5]; FeSSIF (pH = 5.0), 37 °C, 2 h, hydrochloride): 1630 µg/mL
- solubility ([5]; FeSSIF (pH = 5.0), 37 °C, 4 h, hydrochloride): 1210 µg/mL
- solubility ([5]; FeSSIF (pH = 5.0), 37 °C, 24 h, hydrochloride): 1670 µg/mL
- solubility ([5]; SGF (pH = 1.0), 37 °C, 1 h, hydrochloride): 290 µg/mL
- solubility ([5]; SGF (pH = 1.0), 37 °C, 2 h, hydrochloride): 280 µg/mL
- solubility ([5]; SGF (pH = 1.0), 37 °C, 4 h, hydrochloride): 320 µg/mL
- solubility ([5]; SGF (pH = 1.0), 37 °C, 24 h, hydrochloride): 360 µg/mL
- solubility ([5]; acetic acid-sodium acetate buffer pH = 4.0, 37 °C, 1 h, hydrochloride): 1450 µg/mL
- solubility ([5]; acetic acid-sodium acetate buffer pH = 4.0, 37 °C, 2 h, hydrochloride): 1780 µg/mL
- solubility ([5]; acetic acid-sodium acetate buffer pH = 4.0, 37 °C, 4 h, hydrochloride): 1930 µg/mL
- solubility ([5]; acetic acid-sodium acetate buffer pH = 4.0, 37 °C, 24 h, hydrochloride): 2610 µg/mL
- solubility ([5]; hydrochloric acid aqueous solution pH = 1.0, 37 °C, 1 h, hydrochloride): 300 µg/mL
- solubility ([5]; hydrochloric acid aqueous solution pH = 1.0, 37 °C, 2 h, hydrochloride): 410 µg/mL
- solubility ([5]; hydrochloric acid aqueous solution pH = 1.0, 37 °C, 4 h, hydrochloride): 320 µg/mL
- solubility ([5]; hydrochloric acid aqueous solution pH = 1.0, 37 °C, 24 h, hydrochloride): 360 µg/mL
- crystal form of the solid ([5]; phosphate buffer pH = 6.8, 37 °C, 1 h): free alkali
- crystal form of the solid ([5]; phosphate buffer pH = 6.8, 37 °C, 2 h): free alkali
- solubility ([5]; phosphate buffer pH = 6.8, 37 °C, 2 h, hydrochloride): lower than limit of detection
- crystal form of the solid ([5]; phosphate buffer pH = 6.8, 37 °C, 4 h): free alkali
- solubility ([5]; phosphate buffer pH = 6.8, 37 °C, 4 h, hydrochloride): lower than limit of detection
- crystal form of the solid ([5]; phosphate buffer pH = 6.8, 37 °C, 24 h): free alkali
- solubility ([5]; phosphate buffer pH = 6.8, 37 °C, 24 h, hydrochloride): 1.9 µg/mL
- solubility at 1 h ([5]; phosphate buffer, 37 °C, pH 6.8, aqueous buffer, thermodynamic from solid, phosphate buffer pH = 6.8, 37 °C, 1 h): 0.1 µg/mL
- solubility ([5]; water, 37 °C, 1 h, hydrochloride): 1690 µg/mL
- solubility ([5]; water, 37 °C, 2 h, hydrochloride): 1650 µg/mL
- solubility ([5]; water, 37 °C, 4 h, hydrochloride): 2500 µg/mL
- solubility ([5]; water, 37 °C, 24 h, hydrochloride): 2160 µg/mL
- Experimental Phenomenon [6]: relatively severe sticking
- crystal form after grinding (XRPD) [7]: partially crystal transformed into a crystal form C
- solubility ([8]; acetone): 20 µg/mL
- solid-state crystal form ([8]; ethanol): C, with relatively poor crystallinity
- solubility ([8]; ethanol): 5050 µg/mL
- solubility ([8]; ethyl acetate): 10 µg/mL

Reference: patent EP4640674A1, “CRYSTAL FORMS OF ETHOXIMOD, PREPARATION METHOD THEREFOR AND USE THEREOF” (Jiankuan (Suzhou) Biotechnology Co., Ltd, priority 2022, dated 2024)
